Source: publication PMC11597478, “Kinin B1- and B2-Receptor Subtypes Contract Isolated Bovine Ciliary Muscle: Their Role in Ocular Lens Function and Intraocular Pressure Reduction” (Pharmaceuticals, 2024)
Read-outs that look alike come from different tables or passages of the source. Peptide text beside a SMILES is read from it.

Experiments:
mouse bladder strips = conditions: first value of cell, undefined kinin receptor, ref [10], read-out: Functional potency, M/H BSTP, HP Site (mouse); cited from earlier work
Text: (§1) Table 2 Ability of BK and Des-Arg^9-BK to Contract Various Tissues of Different Species or to Mobilize Intracellular Ca^2+ in human Ocular Cells. | column: M/H BSTP

human bladder strips = conditions: second value of cell, undefined kinin receptor, ref [10], read-out: Functional potency, M/H BSTP, HP Site (human); cited from earlier work
Text: as §1

guinea pig taenia caeci = conditions: tissue contraction, ref [17],[18], cited from earlier work
Text: Table 2 Ability of BK and Des-Arg^9-BK to Contract Various Tissues of Different Species or to Mobilize Intracellular Ca^2+ in human Ocular Cells. | column: GPTC

rat whole bladder = conditions: B2-receptor-mediated contraction; ref [1],[2],[3],[18],[20],[23]; read-out: Functional potency, RWB, HP Site; cited from earlier work
Text: Table 2 Ability of BK and Des-Arg^9-BK to Contract Various Tissues of Different Species or to Mobilize Intracellular Ca^2+ in human Ocular Cells. | column: RWB

human umbilical vein = conditions: B2-receptor-mediated contraction; ref [1],[2],[3],[18],[20],[23]; read-out: Functional potency, HUV, HP Site; cited from earlier work
Text: Table 2 Ability of BK and Des-Arg^9-BK to Contract Various Tissues of Different Species or to Mobilize Intracellular Ca^2+ in human Ocular Cells. | column: HUV

guinea pig trachea = conditions: tissue contraction, ref [17],[18], cited from earlier work
Text: Table 2 Ability of BK and Des-Arg^9-BK to Contract Various Tissues of Different Species or to Mobilize Intracellular Ca^2+ in human Ocular Cells. | column: GPT

[1] = system: human trabecular meshwork (hTM) cells; conditions: [Ca2+]i mobilization, second value of cell; single B2-receptor subtype; ref [2],[8]; read-out: Functional potency, hTM Cells, HP Site; cited from earlier work
Text: (§2) Table 2 Ability of BK and Des-Arg^9-BK to Contract Various Tissues of Different Species or to Mobilize Intracellular Ca^2+ in human Ocular Cells. | column: hCM/hTM Cells

[2] = system: human ciliary muscle (hCM) cells; conditions: [Ca2+]i mobilization, first value of cell; single B2-receptor subtype; ref [2],[8]; read-out: Functional potency, hCM Cells, HP Site; cited from earlier work
Text: as §2

rat uterus strips = conditions: B2-receptor-mediated contraction; ref [1],[2],[3],[18],[20],[23]; read-out: Functional potency, RUT, HP Site; cited from earlier work
Text: Table 2 Ability of BK and Des-Arg^9-BK to Contract Various Tissues of Different Species or to Mobilize Intracellular Ca^2+ in human Ocular Cells. | column: RUT

[3] = system: bovine ciliary muscle (BCM) strips; assay: tissue or blood; type: cell-based
Experimental: The methods utilized in the current studies were adapted from Lograno and Romano [13] and Ohia et al., with some minor modifications. Fresh bovine eyeballs were obtained from a local abattoir (Fisher Ham and Meat Company, Houston, TX, USA) and transported to the laboratory in ice. Whole eyeballs were placed in warm oxygenated Krebs buffer solution for 30 min to ensure equilibration before dissection of the ciliary muscle. Briefly, the anterior segment was dissected out of whole eyeballs after an incision was made at the limbus. The anterior segment containing the cornea, anterior uvea, and lens was then inverted and the lens dislodged with a probe along with the attached vitreous humor. After removal of the vitreous humor and lens, the whole ciliary muscle (comprising both longitudinal and circular portions) was quickly isolated and dissected from the scleral spur and choroid. Muscle strips of 4–5 mm in length were cut and mounted in 25 mL organ baths containing oxygenated Krebs solution at 37 °C using a silk thread linked to an isometric strain gauge under a constant load of 1g tension. The tissues were then allowed to equilibrate for 30 min. Two ciliary muscle strips were prepared from each eyeball and four to eight strips were used for each series of experiments. The composition of the Krebs solution used (mM) was NaCl, 118; KCl, 4.8; CaCl2, 2.5; KH2PO4, 1.2; NaHCO3, 25; MgSO4, 2.0; dextrose, 10 and flurbiprofen, 0.003 (pH 7.4), all purchased from Sigma-Aldrich, St. Louis, MO (USA). […] A robust response was characterized as a single contraction that consistently yielded a tension in the muscle induced by carbachol of 0.15–0.3 gm. […] Tissue strips were then thoroughly rinsed with fresh buffer solution via a series of buffer additions and drainage activities to remove any residual muscarinic agonist, and the preload was readjusted prior to starting the actual study with kininergic ligands. Concentration–response studies employed 7–11 compound concentrations (0.1 nM to 10 µM) and data from multiple experiments were collected.
The contractile responses obtained were expressed as gram tension developed and as percentages of the maximum response of each of the compounds. GraphPad Prism 4.0 Software (San Diego, CA, USA) was then used to construct the concentration–response curves for the kinins and to derive the half-maximal stimulation potencies (EC50) of each phase of the bi-phasic curves and the values tabulated as previously described.

[4] = system: recombinant B1 receptors expressed in host cells; conditions: ref [1]; read-out: binding affinity Ki, recombinant B1 receptor (mouse); cited from earlier work
[5] = system: recombinant B1 receptors expressed in host cells; conditions: ref [1]; read-out: binding affinity Ki, recombinant B1 receptor (rabbit); cited from earlier work
rat ileum = conditions: B1-receptor in rat ileum, contraction; ref [25]; read-out: Functional potency, RI, HP Site; cited from earlier work
Text: Table 2 Ability of BK and Des-Arg^9-BK to Contract Various Tissues of Different Species or to Mobilize Intracellular Ca^2+ in human Ocular Cells. | column: RI || In the current studies, both BK and Des-Arg^9-BK contracted the BCM in a biphasic fashion, indicating the involvement of both B1 and B2 receptors in the smooth muscle contraction process. Other agonist peptides related to BK also elicited similar profiles of contractility, thereby substantiating the effects of BK and Des-Arg^9-BK in this specific tissue. Furthermore, the role of both kinin receptor subtypes being responsible for contracting BCM in vitro was confirmed by sequentially recording the functional responses of the tissue in the presence of B1- and B2-receptor antagonists in numerous ...

[6] = system: recombinant B1 receptors expressed in host cells; conditions: ref [1]; read-out: binding affinity Ki, recombinant B1 receptor (human); cited from earlier work

N=C(N)NCCC[C@H](NC(=O)[C@H](Cc1ccccc1)NC(=O)[C@@H]1CCCN1C(=O)[C@H](CO)NC(=O)[C@H](Cc1ccccc1)NC(=O)CNC(=O)[C@@H]1CCCN1C(=O)[C@@H]1CCCN1C(=O)[C@@H](N)CCCNC(=N)N)C(=O)O [BK, Bradykinin] (H-RPPGFSPFR-OH; N-terminus and C-terminus assumed)
EC50 (mouse bladder strips): 1200 nM | EC50 (human bladder strips): 5100 nM | EC50 (guinea pig taenia caeci; high potency site, read-out: Functional potency, GPTC, HP Site): 3 nM | EC50 (guinea pig taenia caeci; low potency site, read-out: Functional potency, GPTC, LP Site): 1000 nM | EC50 (rat whole bladder): 90 nM | EC50 (human umbilical vein): 9 nM | EC50 (guinea pig trachea; high potency site, read-out: Functional potency, GPT, HP Site): 20 nM | EC50 (guinea pig trachea; low potency site, read-out: Functional potency, GPT, LP Site): 4000 nM | EC50 [1]: 1 nM | EC50 [2]: 2.4 nM | EC50 (rat uterus strips): 3 nM | EC50 [3]: 0.9 ± 0.3 nM | share of the maximal contraction accounted for by the first high affinity/potency phase ([3]; biphasic C-R curve, BCM strips): 40–60% | Max. Tension Generated During Contraction ([3]; freshly isolated BCM strips, Krebs 37 °C, 1 g load, 7–11 concentrations (0.1 nM–10 µM), mean ± SEM, 3–8 experiments): 0.07 ± 0.01 gm tension | Ki [4]: 200 nM | Ki [5]: 5000 nM | EC50 (rat ileum): 4890 nM | Ki [6]: 10000 nM
